In patent US4639541A, “Substituted phenylacetic acid iodopropargyl esters, biocidal agents containing same and process for manufacturing same” (priority 1984, dated 1987):

Tests used:
Assay type in all cases: cell-based
Settings in all cases: 48 hours, 20° C., vs untreated control
[1] = test system: Alternaria tenuis; assay: Spore germination test, Alternaria tenuis
Procedure: (§1) 50 μl of a solution or suspension of an active ingredient according to the invention together with 50 μl of a spore suspension produced by washing spores of an agar culture with a nutrient solution that contained per liter 10 g of sugar, 1 g of glycol, 1 g of KH2 PO4 and 0.5 g of MgSO4 were introduced into the concave-ground portion of concave-ground microscope slides.
(§2) The microscope slides were stored at 20° C. for 48 hours in a Petri dish, the base of which was covered with a moistened filter paper.
(§3) Subsequently, the ratio of germinated and non-germinated spores was compared with an untreated control specimen.
(§4) The degree of activity was calculated as a percentage in accordance with the following formula: [formula]

[2] = test system: Colletotrichum coffeanum; assay: Spore germination test, Colletotrichum coffeanum
Procedure: as §1, §2, §3, §4

[3] = test system: Botrytis cinerea; assay: Spore germination test, Botrytis cinerea
Procedure: as §1, §2, §3, §4

[4] = test system: Fusarium nivale; assay: Spore germination test, Fusarium nivale
Procedure: as §1, §2, §3, §4

[5] = test system: Penicillium glaucum; assay: Spore germination test, Penicillium glaucum
Procedure: as §1, §2, §3, §4

[6] = test system: Fusarium culmorum; assay: Spore germination test, Fusarium culmorum
Procedure: as §1, §2, §3, §4

[7] = test system: Verticillium dahliae; assay: Spore germination test, Verticillium dahliae
Procedure: as §1, §2, §3, §4

Row | SMILES | degree of activity (fungal toxicity with respect to fungal spores) ([1]; 1 ppm) [%] | degree of activity (fungal toxicity with respect to fungal spores) ([1]; 2 ppm) [%] | degree of activity (fungal toxicity with respect to fungal spores) ([1]; 4 ppm) [%] | degree of activity (fungal toxicity with respect to fungal spores) ([2]; 1 ppm) [%] | degree of activity (fungal toxicity with respect to fungal spores) ([2]; 2 ppm) [%] | degree of activity (fungal toxicity with respect to fungal spores) ([2]; 4 ppm) [%] | degree of activity (fungal toxicity with respect to fungal spores) ([3]; 1 ppm) [%] | degree of activity (fungal toxicity with respect to fungal spores) ([3]; 2 ppm) [%] | degree of activity (fungal toxicity with respect to fungal spores) ([3]; 4 ppm) [%] | degree of activity (fungal toxicity with respect to fungal spores) ([4]; 1 ppm) [%] | degree of activity (fungal toxicity with respect to fungal spores) ([4]; 2 ppm) [%] | degree of activity (fungal toxicity with respect to fungal spores) ([4]; 4 ppm) [%] | degree of activity (fungal toxicity with respect to fungal spores) ([5]; 1 ppm) [%] | degree of activity (fungal toxicity with respect to fungal spores) ([5]; 2 ppm) [%] | degree of activity (fungal toxicity with respect to fungal spores) ([5]; 4 ppm) [%] | degree of activity (fungal toxicity with respect to fungal spores) ([6]; 1 ppm) [%] | degree of activity (fungal toxicity with respect to fungal spores) ([6]; 2 ppm) [%] | degree of activity (fungal toxicity with respect to fungal spores) ([6]; 4 ppm) [%] | degree of activity (fungal toxicity with respect to fungal spores) ([7]; 1 ppm) [%] | degree of activity (fungal toxicity with respect to fungal spores) ([7]; 2 ppm) [%] | further results
1 | O=C(OCC#CI)C(Br)c1ccc(Cl)cc1 (stereo not shown) [B] | 100 | 100 | 100 | 100 | 100 | 100 | 100 | 100 | 100 | 100 | 100 | 100 | 100 | 100 | 100 | 100 | 100 | 100 | 100 | 100 | degree of activity (fungal toxicity with respect to fungal spores) ([7]; 4 ppm): 100%
2 | O=C(Cc1ccc([N+](=O)[O-])cc1)OCC#CI [F] |  | 100 |  |  | 90 |  |  | 40 |  |  | 80 |  |  | 80 |  |  | 40 |  |  | 90 | 
3 | O=C(Cc1cc([N+](=O)[O-])c(Cl)cc1Cl)OCC#CI [E] | 100 | 100 | 100 | 100 | 100 | 100 | 30 | 30 | 40 | 100 | 100 | 100 | 100 | 100 | 100 | 100 | 100 | 100 | 30 | 30 | degree of activity (fungal toxicity with respect to fungal spores) ([7]; 4 ppm): 40%
4 | O=C(OCC#CI)C(Cl)c1ccccc1 (stereo not shown) [D] | 80 | 90 | 90 | 80 | 90 | 95 | 80 | 80 | 90 | 60 | 80 | 90 | 90 | 95 | 95 | 90 | 95 | 95 | 80 | 80 | degree of activity (fungal toxicity with respect to fungal spores) ([7]; 4 ppm): 95%
5 | O=C(Cc1ccc(Cl)cc1)OCC#CI [A] | 80 | 80 | 90 | 80 | 90 | 95 | 80 | 80 | 90 | 60 | 80 | 90 | 90 | 95 | 95 | 90 | 95 | 95 | 80 | 80 | degree of activity (fungal toxicity with respect to fungal spores) ([7]; 4 ppm): 95%
